Data published in patent US6410585B1, “Inhibitors of protein tyrosine phosphatase” (priority 1997, dated 2002).
Values joined by “and” are separate entries in the source; they are usually repeats but may differ in a detail not shown here. Equal entries are not always repeated.

Columns and labels:
rat PTP1 = target: T1, rat PTP1 (Rattus norvegicus, UniProt P20417); test: PTP1 assay, pNPP hydrolysis (rate of change in A405); format: biochemical; conditions: for inhibition at 1 µM: Conc 1 uM; for inhibition at 1 µM / inhibition at 10 µM / inhibition at 100 µM: pNPP hydrolysis, Table 2, read-out: PTP1 Inhib PTP1N. % Inhib; for inhibition at 10 µM: Conc 10 uM; for inhibition at 100 µM: Conc 100 uM; for Ki: calculated from IC50-values obtained from a dose-response curve using the inhibition assay
T1 construct: a C-terminal truncation of rat PTP1 (amino acid residues 1-322); GST (N, cleaved yes); made in house; host or cells: E. coli strain TG-1 (pGEX-2T)
T1 sequence (P20417 1-322): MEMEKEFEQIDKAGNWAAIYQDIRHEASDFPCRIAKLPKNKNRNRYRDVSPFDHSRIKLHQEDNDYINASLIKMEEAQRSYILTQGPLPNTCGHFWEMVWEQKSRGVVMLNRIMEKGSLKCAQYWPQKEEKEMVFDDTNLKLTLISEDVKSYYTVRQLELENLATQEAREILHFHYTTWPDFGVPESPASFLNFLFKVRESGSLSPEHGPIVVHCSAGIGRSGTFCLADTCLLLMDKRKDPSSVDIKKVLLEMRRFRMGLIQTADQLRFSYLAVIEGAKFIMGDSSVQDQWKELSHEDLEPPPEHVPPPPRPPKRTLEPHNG
In short: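 Thrombin-cleaved rat PTP1 residues 1-322 (35 ng/ml) with 1 mM pNPP in 50 mM Hepes pH 7.2, NaCl, EDTA, DTT, BSA at room temperature. A405 rate followed 60 min. Compounds added as 10 mM solutions; percent inhibition relative to plate DMSO controls, 1 mM orthovanadate as full-inhibition control.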

human PTP1B = target: T2, human PTP1B (Homo sapiens, UniProt P18031); test: PTP1B assay, pNPP hydrolysis, assayed exactly as for PTP1; format: biochemical; conditions: for PTP1B Inhib PTP1B. % Inhib: Table 2; for inhibition at 1 µM: Conc 1 uM; for inhibition at 1 µM / inhibition at 10 µM / inhibition at 100 µM: Table 2, read-out: PTP1B Inhib PTP1B. % Inhib
T2 construct: human PTP1B (amino acid residues 1-321); made in house; host or cells: E. coli BL21(DE3)
T2 sequence (P18031 1-321): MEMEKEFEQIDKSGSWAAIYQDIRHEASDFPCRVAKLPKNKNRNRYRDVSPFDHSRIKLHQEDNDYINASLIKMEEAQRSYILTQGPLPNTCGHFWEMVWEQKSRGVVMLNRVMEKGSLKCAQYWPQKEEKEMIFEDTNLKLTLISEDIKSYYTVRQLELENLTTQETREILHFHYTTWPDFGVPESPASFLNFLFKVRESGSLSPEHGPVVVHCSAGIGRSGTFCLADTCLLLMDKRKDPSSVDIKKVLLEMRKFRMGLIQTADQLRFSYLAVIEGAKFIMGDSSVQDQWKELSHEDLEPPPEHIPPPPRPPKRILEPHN
Text: The equivalent construct of human PTP1B (amino acid residues 1-321) (cloned from a human placental library), without the GST tag and thrombin cleavage site, was inserted into a pMB replicon and transformed into E. coli BL21(DE3), a strain containing a chromosomal copy of the gene for T7 RNA polymerase under control of a lacUV5 promoter. Expression of PTP1B was induced with isopropyl thiogalactose and the soluble protein was purified by ion exchange, hydrophobic interaction and gel exclusion chromatography for use in the assay to identify PTP inhibitors.
PTP1 activity is measured using either p-nitrophenol phosphate (pNPP) or a triphosphopeptide (that matches residues 1142 through 1153 of the β-subunit and the insulin receptor) as substrate in a 96-well microtiter plate format. An assay pH of 7.2 is used for standard assays (measured 405=9800 at pH 7.2).
Human PTP1B, which is highly homologous to rat PTP1, was assayed exactly as described above for PTP1.
Standard assays are conducted at room temperature in a total volume of 0.2 ml that contains Hepes buffer (50 mM, pH 7.2), NaCl (50 mM), EDTA (1 mM), DTT (1 mM), bovine serum albumin (1 mg/ml), pNPP (1 mM) and PTP1 (35 ng/ml). Compounds (2 μl of 10 mM solutions) are pipetted into wells of microtiter plates followed by 198 μl of premixed reaction mix (with PTP1 and pNPP added immediately before use). The rate of change in A405 is recorded for 60 min. Two wells on each plate contain DMSO controls and two wells contain sodium orthovanadate (1 mM) which inhibits PTP1-catalyzed hydrolysis of pNPP completely. Data are expressed as percent inhibition relative to the average of the DMSO controls measured on the same microtiter plate.

SMILES	inhibition at 1 µM (rat PTP1) [%]	inhibition at 10 µM (rat PTP1) [%]	inhibition at 100 µM (rat PTP1) [%]	PTP1B Inhib PTP1B. % Inhib (human PTP1B; Conc 10 uM)	PTP1B Inhib PTP1B. % Inhib (human PTP1B; Conc 100 uM)	inhibition at 1 µM (human PTP1B) [%]	inhibition at 10 µM (human PTP1B; Conc 10 uM) [%]	inhibition at 100 µM (human PTP1B; Conc 100 uM) [%]	melting point [°C]	Ki (rat PTP1) [µM]
CCCCCNC(=O)C(Cc1ccc(OCCOO)c(COO)c1)NC(=O)C(Cc1ccccc1)NC(=O)OC(C)(C)C (stereo not shown) [drawing 162]	40	84	97	78% and 54% and 43%	97% and 89% and 87%	–	–	–	–	–
CCCCCNC(=O)C(Cc1ccc(OC(COO)C(=O)O)cc1)NC(=O)NC(Cc1ccc(OCc2ccccc2)cc1)C(=O)O (stereo not shown)	8	55	96	–	–	14	63	97	–	–
CCCCCNC(=O)C(Cc1ccc(OC(COO)COO)cc1)NC(=O)C(Cc1ccc(C(=O)c2ccccc2)cc1)NC(=O)OC(C)(C)C (stereo not shown)	10	44	91	–	–	9	42	90	–	–
CCCCCNC(=O)C(Cc1ccc(OC(COO)COO)cc1)NC(=O)C(C)NC(=O)OC(C)(C)C (stereo not shown)	0	22	76	–	–	7	36	83	–	–
CCCCCNC(=O)C(Cc1ccc(OC(COO)COO)cc1)NC(=O)C(Cc1ccccc1)NC(=O)CCC(=O)O (stereo not shown)	37	84	97	–	–	45	87	99	–	–
CC(C)(C)OC(=O)N[C@@H](Cc1ccccc1)C(=O)N[C@H](CO)Cc1ccc(OCC(=O)O)c(C(=O)O)c1 [Example 138, 5-[(2S)-2-({(2S)-2-[(tert-butoxycarbonyl)amino]-3-phenylpropanoyl}amino)-3-hydroxypropyl]-2-(carboxymethoxy)benzoic Acid]	–	–	–	–	–	–	–	–	168.8 to 172.3	–
CCCCCNC(=O)C(Cc1ccc(OC(COO)COO)cc1)NC(=O)C(Cc1ccccc1)NC(=O)OC(C)(C)C (stereo not shown)	9	42	88	–	–	7	48	91	–	–
O=C(O)COc1ccc(C[C@H](NC(=O)c2ccccc2)C(=O)NCCCCc2ccccc2)cc1-c1nn[nH]n1 [Example 146, 2-[4-{(2S)-2-(benzoylamino)-3-oxo-3-[(4-phenylbutyl)amino]-propyl}-2-(2H-1,2,3,4-tetrazol-5-yl)phenoxy]acetic Acid]	–	–	–	–	–	–	–	–	223 to 225	20
CCCCCNC(=O)[C@@H](Cc1ccc(OCC(=O)O)c(C(=O)O)c1)NC(=O)Cc1ccccc1OC [Example 153, 2-(carboxymethoxy)-5-[(2R)-2-{[2-(2-methoxyphenyl)acetyl]amino}-3-oxo-3-(pentylamino)propyl]benzoic Acid]	–	–	–	–	–	–	–	–	146 to 148	30
CCCCCNC(=O)[C@H](Cc1ccc(OCC(=O)O)c(C(=O)O)c1)NC(=O)[C@@H](Cc1ccccc1)N1CCCC1=O [Example 143, 2-(carboxymethoxy)-5-[(2S)-3-oxo-2-{[(2R)-2-(2-oxo-1-pyrrolidinyl)-3-phenylpropanoyl]amino}-3-(pentylamino)propyl]benzoic Acid]	–	–	–	–	–	–	–	–	96 to 97	–
O=C(O)COc1ccc(C[C@H](NC(=O)c2ccoc2)C(=O)NCCCCc2ccccc2)cc1-c1nn[nH]n1 [Example 147, 2-[4-{(2S)-2-(3-furoylamino)-3-oxo-3-[(4-phenylbutyl)amino]-propyl}-2-(2H-1,2,3,4-tetrazol-5-yl)phenoxy]acetic Acid]	–	–	–	–	–	–	–	–	230 to 233	46
